“And” between values parts separate entries of the source, which are not always exact repeats. Equal entries are not always repeated.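 A five-concentration, 48-hour dose response in 96-well plates underlies each endpoint, interpolated linearly between surrounding concentrations. Abbreviation: GI50, concentration required for 50% inhibition of growth. The concentration for full growth arrest is given as TGI.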 The source made the active and inactive calls. No stated cut-off is given here; in the data, active means GI50 below about 0.43 µM; inactive means the rest.
Key:
Assay in all cases: DTP human tumour cell line panel, 48 h
[1] = tested on: DLD-1 colon
[2] = tested on: DMS 114 small cell lung
[3] = tested on: DMS 273 small cell lung
[4] = tested on: KM20L2 colon
[5] = tested on: LXFL 529 NSCLC
[6] = tested on: MDA-MB-435
[7] = tested on: SNB-78 CNS
[8] = tested on: XF 498 CNS

Row | Structure (SMILES) | TGI [1] | TGI [2] | TGI [3] | TGI [4] | TGI [5] | TGI [6] | TGI [7] | TGI [8] | GI50 [2] | GI50 [3] | outcome [4] | outcome [5] | GI50 [7] | outcome [8] | GI50 [6]
1 | O=Cc1ccc(-c2cccs2)s1 | > 74.9 µM | > 100 µM | > 100 µM | > 100 µM | 4.51 µM | > 100 µM | > 100 µM | 11.5 µM | – | – | – | – | – | – | –
2 | CCOC(=O)C(=O)Nc1c(C(C)C)cccc1C(C)C | > 100 µM | > 100 µM | > 100 µM | > 100 µM | > 100 µM | – | > 100 µM | > 100 µM | – | – | – | – | – | – | –
3 | COC(=O)c1nc(N)[nH]c(=O)c1CCCCCc1c(C(=O)OC)nc(N)[nH]c1=O | > 50 µM | > 50 µM | > 50 µM | > 50 µM | > 50 µM | – | > 50 µM | > 50 µM | – | – | – | – | – | – | –
4 | Nc1nc(CCC(=O)Nc2cccc(C(F)(F)F)c2)cc(-c2ccc3ccccc3c2)n1 | > 100 µM | > 100 µM | > 100 µM | > 100 µM | > 100 µM | – | > 100 µM | > 100 µM | – | – | – | – | – | – | –
5 | Cc1c(Cl)cccc1NC(=O)CC1C(=O)Nc2ccccc2S1(=O)=O (stereo not given) | 30.4 µM | 44.9 µM | 21.4 µM | 44.9 µM | 29 µM | – | 45.5 µM | 30 µM | – | – | – | – | – | – | –
6 | COC(=O)C1=C(CS(=O)c2ccccc2[N+](=O)[O-])ON(C)C1c1ccccc1 (stereo not given) | > 100 µM | 65.5 µM | > 100 µM | 85.1 µM | > 100 µM | – | > 100 µM | 86.2 µM | – | – | – | – | – | – | –
7 | O=[N+]([O-])c1ccc2c(c1)[O][Sn][O]2 | – | > 150 µg/mL | > 150 µg/mL | – | – | – | > 150 µg/mL | – | 66.2 µg/mL | 18.8 µg/mL | inactive | inactive | 124 µg/mL | inactive | –
8 | CCOC(=O)COS(=O)(=O)C(F)(F)F | > 100 µM | 31.7 µM | 36.7 µM | > 100 µM | > 100 µM | – | > 100 µM | > 100 µM | – | – | – | – | – | – | –
9 | Cc1nn(-c2ccccc2)c(-c2ccccc2[N+](=O)[O-])c1CC#N | – | > 100 µM | > 100 µM | > 100 µM | > 100 µM | – | > 100 µM | > 100 µM | – | – | – | – | – | – | –
10 | CCN(CC)c1ccc2c(c1)Nc1cc(=C(C#N)C#N)c3ccccc3c1=N2 | > 100 µM | > 100 µM | > 100 µM | > 100 µM | > 100 µM | – | > 100 µM | > 100 µM | – | – | – | – | – | – | –
11 | Cc1c2cc[n+](C)cc2c(C)c2c1[nH]c1ccc(O)c(OCC(F)(F)F)c12 | 44.4 µM | 8.04 µM | 8.79 µM | > 55 µM | 8.16 µM | – | 4.96 µM | 10.6 µM | – | – | – | – | – | – | –
12 | S=c1nc(-c2cccnc2)[nH][nH]1 | > 100 µM | > 100 µM | > 100 µM | > 100 µM | > 100 µM | – | > 100 µM | > 100 µM | – | – | – | – | – | – | –
13 | COc1ccc2c(c1)[n+]([O-])c(/C(C)=N/NC(=O)CC#N)c[n+]2[O-] | > 100 µM | > 100 µM | > 100 µM | > 100 µM | > 100 µM | – | > 100 µM | > 100 µM | – | – | – | – | – | – | –
14 | CCOC(=O)[C@H]1Nc2ccc(OC)cc2C2c3ccccc3CC21 (stereo not given in full) | > 100 µM | > 100 µM | > 100 µM | > 100 µM | > 100 µM | – | > 100 µM | > 100 µM | – | – | – | – | – | – | –
15 | O=c1ccc(=O)c2c(=O)c3ccccc3c(=O)c1=2 | > 100 µM | 95.1 µM | > 100 µM | – | > 100 µM | – | > 100 µM | > 100 µM | – | – | – | – | – | – | –
16 | CN[C@@H]1C[C@H]2O[C@@](C)([C@@H]1OC)n1c3ccccc3c3c4c(c5c6ccccc6n2c5c31)C(=O)N[C@@H]4O | 15 µM | 1.58 µM | 0.637 µM | 2.53 µM | 0.549 µM | 0.3 µM and 1.88 µM | 0.225 µM | 0.463 µM | – | – | – | – | – | – | 0.0478 µM
